# Target: T1, Toll-like receptor 7 (Homo sapiens, UniProt Q9NYK1)
# T1 sequence (Q9NYK1 whole entry): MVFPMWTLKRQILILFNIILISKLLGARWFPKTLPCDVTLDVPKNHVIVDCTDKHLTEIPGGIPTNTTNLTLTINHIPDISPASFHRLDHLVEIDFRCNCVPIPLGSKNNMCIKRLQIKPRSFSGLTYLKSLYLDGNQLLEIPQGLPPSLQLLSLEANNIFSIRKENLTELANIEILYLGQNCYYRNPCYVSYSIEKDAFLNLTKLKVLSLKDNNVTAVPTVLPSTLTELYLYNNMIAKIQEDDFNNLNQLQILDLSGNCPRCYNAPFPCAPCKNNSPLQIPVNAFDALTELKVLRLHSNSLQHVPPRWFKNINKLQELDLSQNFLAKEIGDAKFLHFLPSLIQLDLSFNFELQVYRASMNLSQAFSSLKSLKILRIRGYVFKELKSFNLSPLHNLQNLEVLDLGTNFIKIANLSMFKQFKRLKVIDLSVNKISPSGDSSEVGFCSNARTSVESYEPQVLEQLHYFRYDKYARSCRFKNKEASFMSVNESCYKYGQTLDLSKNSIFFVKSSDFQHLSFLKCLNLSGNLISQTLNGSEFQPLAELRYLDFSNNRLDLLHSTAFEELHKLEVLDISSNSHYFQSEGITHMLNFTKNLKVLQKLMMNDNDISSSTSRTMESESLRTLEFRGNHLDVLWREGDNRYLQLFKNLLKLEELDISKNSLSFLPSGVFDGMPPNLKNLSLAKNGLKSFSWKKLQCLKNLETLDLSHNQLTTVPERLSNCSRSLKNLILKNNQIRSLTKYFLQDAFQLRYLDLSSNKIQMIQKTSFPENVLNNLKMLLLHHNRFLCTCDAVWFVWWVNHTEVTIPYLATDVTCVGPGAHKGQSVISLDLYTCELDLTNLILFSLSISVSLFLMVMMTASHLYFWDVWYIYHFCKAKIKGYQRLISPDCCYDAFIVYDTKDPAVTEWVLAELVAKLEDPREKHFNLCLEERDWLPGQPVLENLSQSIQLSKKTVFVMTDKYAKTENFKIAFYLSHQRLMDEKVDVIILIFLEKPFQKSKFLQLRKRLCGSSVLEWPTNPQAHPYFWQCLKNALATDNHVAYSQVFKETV
# Assay: HEK293-Blue-hTLR-7 Cells Ass: A stable HEK293-Blue-hTLR-7 cell line was purchased from InvivoGen (Cat.#: hkb-htlr7, San Diego, Calif., USA). These cells were designed for studying the stimulation of human TLR7 by monitoring the activation of NF-κB. A SEAP (secreted embryonic alkaline phosphatase) reporter gene was placed under the control of the IFN-β[…] minimal promoter fused to five NF-κB and AP-1-binding sites. The SEAP was induced by activating NF-κB and AP-1 via stimulating HEK-Blue hTLR7 cells with TLR7 ligands. Therefore the reporter expression was regulated by the NF-κB promoter upon stimulation of human TLR7 for 20 hours. The cell culture supernatant SEAP reporter activity was determined using QUANTI-Blue kit (Cat.#: rep-qb1, Invivogen, San Diego, Calif., USA) at a wavelength of 640 nm, a detection medium that turns purple or blue in the presence of alkaline phosphatase.HEK293-Blue-hTLR7 cells were incubated at a density of 250,000 ~ 450,000 cells/mL in a volume of 180 μL in a 96-well plate in Dulbecco's Modified Eagle's medium (DMEM) containing 4.5 g/L glucose, 50 U/mL penicillin, 50 […], 100 […], 2 mM L-glutamine, 10% (v/v) heat-inactivated fetal bovine serum for 24 h. […]
smiles,measurement,value
"CCC(O)[C@@H]1C[C@@H](OC(C)=O)[C@H](n2c(=O)sc3c(=O)[nH]c(N)nc32)O1 (single isomer, unassigned)",EC50,48 µM
